The source of these data is ChEMBL document CHEMBL1938240, “Enzymatic transformation of caffeic acid with enhanced cyclooxygenase-2 inhibitory activity” (Bioorg Med Chem Lett, 2012).

In this experiment the target is T1, Prostaglandin G/H synthase 2 (Homo sapiens, UniProt P35354).
T1 sequence (P35354 whole entry): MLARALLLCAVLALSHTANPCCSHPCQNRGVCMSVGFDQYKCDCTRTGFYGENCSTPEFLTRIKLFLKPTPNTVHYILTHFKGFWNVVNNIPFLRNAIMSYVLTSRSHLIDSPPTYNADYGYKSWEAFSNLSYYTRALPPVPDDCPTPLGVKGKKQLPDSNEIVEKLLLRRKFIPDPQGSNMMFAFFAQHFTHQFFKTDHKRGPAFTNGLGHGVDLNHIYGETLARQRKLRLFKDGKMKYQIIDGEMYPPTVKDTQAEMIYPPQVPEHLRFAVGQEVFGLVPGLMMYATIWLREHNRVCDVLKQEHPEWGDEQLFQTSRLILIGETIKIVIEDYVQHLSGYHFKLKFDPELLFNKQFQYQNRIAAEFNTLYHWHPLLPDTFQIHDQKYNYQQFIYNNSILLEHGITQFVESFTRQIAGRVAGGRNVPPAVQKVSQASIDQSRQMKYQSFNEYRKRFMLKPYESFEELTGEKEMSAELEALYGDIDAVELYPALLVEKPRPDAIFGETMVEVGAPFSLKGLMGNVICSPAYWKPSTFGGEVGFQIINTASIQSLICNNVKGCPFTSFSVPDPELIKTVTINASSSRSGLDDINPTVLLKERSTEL
Description: Inhibition of COX2 assessed as inhibition of PGE2 production using arachidonic acid as substrate after 10 mins by ELISA. (An ELISA detects its analyte on a solid surface through an enzyme-linked reagent.)
`O=C(O)/C=C/C12C=C(O)C(=O)C=C1C(=O)C1=Cc3cc(O)c(O)cc3O[C@@H](c3ccc(O)c(O)c3)[C@@H]12` (relative stereo): the IC50 is 9.8 µM.

On to `O=C(O)/C=C/c1ccc2c(c1)O[C@H](c1cc(O)cc(O)c1)[C@H](C(=O)O)O2` [CAFFEICINIC ACID], for which the half-inhibitory concentration (IC50) is 7.5 µM.

As for `O=C(O)/C=C/c1ccc2c(c1)O[C@@H](C(=O)O)[C@@H](c1ccc(O)c(O)c1)O2` (relative stereo), the IC50 stood at 52.6 µM.

Consider `O=C1O[C@@H](c2ccc(O)c(O)c2)[C@H](C(=O)O)/C1=C\c1ccc(O)c(O)c1` [PHELLINSIN A], for which the 50% inhibitory concentration (IC50) came out at 42.6 µM.

Broadly, the IC50 is the midpoint of a concentration-inhibition curve.
